# Legend:
# [1] = tested on: NCI-H23 cells; test: Proliferation and cell viability, CellTiter-Glo 2.0 (CTG) assay; format: cell-based; conditions: 144 hrs
# Experimental: (§1) Cell proliferation of a TEAD dependent NF2-null mesothelioma cell line, NCI-H226, and a TEAD-non-dependent mesothelioma cell line, NCI-H28 was assayed using two different protocols: • a) CellTiter-Glo 2.0 (Promega #G9243). The effect of the TEAD inhibitors disclosed herein on cell proliferation was determined in TEAD1-genetically dependent cell line NCI-H226 (responder cell line) and TEAD-independent cell lines (NCI-H23, HEK293T), as non-responder, negative control. Cells were seeded in 96-well plates (Thermo Scientific #167008) in growth media (RPMI-1640, Gibco #61870-010) for NCI-H226 and NCI-H23 or DMEM (Gibco #31966-021, HEK293T) with 10% Heat Inactivated Fetal Bovine Serum (Gibco 10500-064) at 800 (NCI-H226 and HEK-293T) or 2000 (NCI-H23) cells per well at 37° C., 5% CO2, humidified incubator; 24 hours later, fresh growth media containing test compound or DMSO vehicle was added and incubated with the cells for 144 hrs. TEAD inhibitor stocks were made at a 1000× fold excess in DMSO, and a dose response test compound dose range of 10,000 to 0.1 nM was used. Each treatment was carried out in triplicate. After 144 hrs of treatment, relative cell viability numbers were determined using the CellTiter-Glo 2.0 assay following the manufacturer's instructions. Test plates and CellTiter-Glo 2.0 reagent were allowed to equilibrate to room temperature. CellTiter-Glo 2.0 reagent was added at 1:1 reagent to media ratio to the 96-well cell plates, plates were placed on a plate shaker for 2 minutes and then incubated at room temperature for a further 10 minutes to allow complete cell lysis to occur. The mix was then transferred to white, 96-well luminometer assay plates (Greiner Bio One #655075). Luminescence was quantified using a CLARIOStar Plus multi-mode plate reader (BMG Labtech) in luminescence detection mode with the recommended settings (ultra-Glo pre-set: emission 545-50 nm with autofocus and enhanced dynamic range on). Relative cell density was expressed as a function of inhibitor concentration, with respect to DMSO-only control wells. Data where plotted using GraphPad Prism and IC50 values for the biological effect were calculated using the EC50 non-linear fit function using a sigmoidal, 4-parameter logistic, least squares fit with no constraints. • b) Cell Titer One (Promega, #G3582). The effect of the TEAD inhibitors disclosed herein on cell proliferation was also determined using the Promega Substrate Cell Titer Aqueous One Solution Reagent. The TEAD inhibitors were evaluated for the effects on cell proliferation responder (H226) and non-responder negative control cancer cell lines (CAMA1, H28), as well as non-transformed normal human cells (HUVEC, NHDF). Dissociated cells were resuspend in media (depending on cell line, either in DMEM, RPMI, or EMEM all with 10% FBS, with gentamicin as an antibiotic). Cells were seeded at 100 μL/well at 750 cells per well in 96-well plates and allowed to settle and attach. After an incubation of 24 hrs (37° C., 5% CO2, humidified incubator), 100 μL of test compound-containing media was added. A dilution series of 2000× concentrated stock of test compounds was prepared in DMSO, for final concentrations from 0.1 to 10,000 nM. After addition of test compound-containing media, cells were incubated for 6 days at 37° C., 5% CO2, humidified incubators). To measure cell density, 20 μL of Promega Substrate Cell Titer 96 Aqueous One Solution Reagent (Promega, #G3582) to each well was added according to the manufacturer's instructions. Plates were incubated at 37° C. for usually 3-8 hrs, to reach in the control cells (without compound) an OD of 1.5 at 490 nm. The OD was measured using Vmax [Molecular Devices] spectrophotometer plate reader. Media only-wells were used as background controls and cell densities normalized to DMSO vehicle control. ECs were taken as the concentration achieving 50% of maximal growth inhibition.
# [2] = tested on: NCI-H226 cells; test: as above; format: cell-based; conditions: H226-responder cell line, 144 hrs
# Experimental: as §1
# [3] = tested on: NCI-H28 cells; test: Proliferation, Cell Titer One assay; format: cell-based; conditions: 6 days
# Experimental: as §1
# [4] = tested on: NCI-H226 cells; test: Proliferation, Cell Titer One assay; format: cell-based; conditions: 6 days
# Experimental: as §1
# [5] = tested on: TEAD/YAP promoter element in MCF7-Luc cells; test: Cell-based TEAD-promoter transcriptional activity assay (MCF-7 TEAD luciferase); conditions: Homo sapiens, MCF7; MCF-7 TEAD luciferase assay, 24 hrs
# From the text: Luciferase based TEAD-transcriptional cell-based reporter assay: To measure the effect of the TEAD inhibitors disclosed herein on TEAD transcriptional activity in cell-based systems, we employed a stable MCF7 cell line expressing luciferase under a consensus synthetic TEAD/YAP promoter element (MCF7-Luc, BPS Bioscience, Catalog #60618). This MCF7-TEAD-Luc cell line has been extensively validated with both genetic and pharmacological intervention, showing inhibition of luciferase expression and luminescence in response to ablation of the TEAD/YAP pathway. MCF7-Luc cells were plated at 10,000 cells per well in white 384-well plates and settled by a quick spin. The media was MEM (Gibco) supplemented with 10% fetal bovine serum (ExCell), selenium-transferrin-insulin mix (Gibco), 1× non-essential amino acids (Gibco) and sodium pyruvate (Gibco). Cells were allowed to attach and grow overnight (37° C., 5% CO2 in humidified incubator), and test compounds were added the next day. Compounds were dissolved at 1000× fold excess in DMSO and made into 2-fold serial dilution, and added to media at 30 μL of media per well. A DMSO-only well serves a vehicle control. The highest concentration of drug in media was 1,000 nM. Positive control compounds include K975 (pan-TEAD inhibitor) and negative control (Actinomycin). Cells were incubated for 24 hrs with test compounds and positive controls, after which time, the luminescence was measured by the One-Glo luciferase kit (Promega). 30 μL of One-Glo reagent was added to each well and shaken for 8 minutes to lyse the cells. The plates were centrifugated at 1000 RPM for 1 minute to settle all liquid in the well and eliminate bubbles. Luminescence was quantified using an ENVision plate reader (Perkin Elmer). Percent inhibition of luminescence by test compound was expressed as a function of test compound concentration, with the no-test compound DMSO only wells serving as baseline. EC50 values for each compound were calculated with a non-linear asymptotic line fit.
# [6] = target: TEAD4 (Homo sapiens, UniProt Q15561); conditions: cited from earlier work
# Chain of TEAD4 (Q15561 whole entry): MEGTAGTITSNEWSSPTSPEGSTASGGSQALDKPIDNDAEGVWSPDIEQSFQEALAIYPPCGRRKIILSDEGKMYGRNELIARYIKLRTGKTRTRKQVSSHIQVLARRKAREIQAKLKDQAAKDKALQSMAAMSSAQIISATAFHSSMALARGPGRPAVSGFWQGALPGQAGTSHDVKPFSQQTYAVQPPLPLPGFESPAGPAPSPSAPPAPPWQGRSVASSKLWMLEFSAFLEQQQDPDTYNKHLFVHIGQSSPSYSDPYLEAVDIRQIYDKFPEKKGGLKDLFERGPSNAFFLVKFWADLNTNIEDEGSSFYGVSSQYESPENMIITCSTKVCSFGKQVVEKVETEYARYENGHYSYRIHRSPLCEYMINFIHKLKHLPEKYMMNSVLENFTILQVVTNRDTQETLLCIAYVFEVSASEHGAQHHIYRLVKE
# [7] = target: TEAD2 (Homo sapiens, UniProt Q15562); conditions: thermal shift, reported data of Tang and Post; cited from earlier work
# Chain of TEAD2 (Q15562 whole entry): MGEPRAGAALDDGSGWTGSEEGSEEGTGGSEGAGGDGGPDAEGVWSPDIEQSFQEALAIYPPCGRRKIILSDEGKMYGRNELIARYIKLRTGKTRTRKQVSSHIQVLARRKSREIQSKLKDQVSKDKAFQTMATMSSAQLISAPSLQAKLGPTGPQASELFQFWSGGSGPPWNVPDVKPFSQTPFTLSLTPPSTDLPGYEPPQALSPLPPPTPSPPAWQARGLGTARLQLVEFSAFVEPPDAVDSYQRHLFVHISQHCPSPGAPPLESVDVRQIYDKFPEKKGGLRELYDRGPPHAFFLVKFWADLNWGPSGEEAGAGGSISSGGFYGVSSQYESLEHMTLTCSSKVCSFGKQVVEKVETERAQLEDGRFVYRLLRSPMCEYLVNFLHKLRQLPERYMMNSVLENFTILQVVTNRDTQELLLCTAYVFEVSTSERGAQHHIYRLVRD
# [8] = target: TEAD3 (Homo sapiens, UniProt Q99594); conditions: thermal shift, reported data of Tang and Post; cited from earlier work
# Chain of TEAD3 (Q99594 whole entry): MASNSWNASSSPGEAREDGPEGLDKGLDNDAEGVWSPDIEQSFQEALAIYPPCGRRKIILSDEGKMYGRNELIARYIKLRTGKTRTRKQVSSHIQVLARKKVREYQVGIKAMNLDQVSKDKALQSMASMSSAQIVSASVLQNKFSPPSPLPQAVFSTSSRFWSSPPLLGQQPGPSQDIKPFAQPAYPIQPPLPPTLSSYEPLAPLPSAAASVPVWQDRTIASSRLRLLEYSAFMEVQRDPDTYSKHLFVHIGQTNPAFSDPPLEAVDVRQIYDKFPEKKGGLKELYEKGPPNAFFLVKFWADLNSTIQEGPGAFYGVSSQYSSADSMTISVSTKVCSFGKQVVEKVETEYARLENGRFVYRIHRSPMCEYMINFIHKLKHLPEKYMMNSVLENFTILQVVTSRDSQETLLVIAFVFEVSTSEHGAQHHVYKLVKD
# [9] = target: TEAD1 (Homo sapiens, UniProt P28347); conditions: cited from earlier work
# Chain of TEAD1 (P28347 whole entry): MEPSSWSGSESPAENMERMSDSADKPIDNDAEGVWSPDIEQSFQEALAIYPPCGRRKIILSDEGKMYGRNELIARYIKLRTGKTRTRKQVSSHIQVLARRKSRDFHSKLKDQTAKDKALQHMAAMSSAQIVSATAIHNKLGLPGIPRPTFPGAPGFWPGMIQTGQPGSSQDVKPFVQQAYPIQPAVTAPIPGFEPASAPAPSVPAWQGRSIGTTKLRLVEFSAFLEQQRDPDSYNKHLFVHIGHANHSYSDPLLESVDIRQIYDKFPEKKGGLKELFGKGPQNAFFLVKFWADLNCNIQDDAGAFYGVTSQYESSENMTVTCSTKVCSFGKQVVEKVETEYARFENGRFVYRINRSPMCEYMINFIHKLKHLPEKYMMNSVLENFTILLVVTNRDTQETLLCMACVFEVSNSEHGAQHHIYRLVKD
# [10] = Homo sapiens, NCI-H23, H23-non-responder cell line
# [11] = thermal shift assays of Tang and Post
# [12] = thermal shift, reported data of Tang and Post
IC50 ([1]; H23-non-responder cell line) [µM],IC50 [2] [µM],IC50 [3] [µM],IC50 [4] [µM],"IC50 [1, 10] [µM]","IC50 ([2]; Homo sapiens, NCI-H226, 144 h) [µM]","IC50 ([3]; Homo sapiens, NCI-H28, 144 h) [µM]","IC50 ([4]; Homo sapiens, NCI-H226, 144 h) [µM]",SMILES,also measured
> 1,0.2 to 1,> 1,0.2 to 1,,,,,"C[C@H](NC(=O)c1cnc2c(C3=CC[C@@H](C(F)(F)F)CC3)cccc2c1)c1ncco1 (single isomer, unassigned) [Compound 21, N-(1-(oxazol-2-yl)ethyl)-8-(4-(trifluoromethyl)cyclohex-1-en-1-yl)quinoline-3-carboxamide]",
,,,,> 1,< 0.2,> 1,< 0.2,"CC(C)NC(=O)c1cnc2c(C3=CCC(C(F)(F)F)CC3)cccc2c1 (centres unmarked) [Compound 1, N-isopropyl-8-(4-(trifluoromethyl)cyclohex-1-en-1-yl)quinoline-3-carboxamide]",EC50 [5]: < 0.2 µM
,,,,> 1,< 0.2,> 1,< 0.2,"COC[C@H](C)NC(=O)c1cnc2c(C3=CCC(C(F)(F)F)CC3)cccc2c1 (stereo partly drawn) [Compound 6, N—((S)-1-methoxypropan-2-yl)-8-(4-(trifluoromethyl)cyclohex-1-en-1-yl)quinoline-3-carboxamide]",

# The remaining lines, values behind:
SMILES,IC50 ([1]; H23-non-responder cell line) [µM],IC50 [2] [µM],IC50 [3] [µM],IC50 [4] [µM],"IC50 [1, 10] [µM]","IC50 ([2]; Homo sapiens, NCI-H226, 144 h) [µM]","IC50 ([3]; Homo sapiens, NCI-H28, 144 h) [µM]","IC50 ([4]; Homo sapiens, NCI-H226, 144 h) [µM]",also measured
"C[C@H](NC(=O)c1cnc2c(C3=CC[C@@H](C(F)(F)F)CC3)cccc2c1)c1ncco1 (single isomer, unassigned) [Compound 22, N-(1-(oxazol-2-yl)ethyl)-8-(4-(trifluoromethyl)cyclohex-1-en-1-yl)quinoline-3-carboxamide]",> 1,< 0.2,> 1,0.2 to 1,,,,,
"CS(=O)(=O)c1cnc2c(C3=CCC(C(F)(F)F)CC3)cccc2c1 (centres unmarked) [Compound 16, 3-(methylsulfonyl)-8-(4-(trifluoromethyl)cyclohex-1-en-1-yl)quinoline]",,,,,,< 0.2,> 1,< 0.2,
C[C@H](CO)NC(=O)c1ccc2c(Oc3ccc(C(F)(F)F)cc3)cccc2c1 [VT3989],,,,,,,,,"binding to TEAD4, in words [6, 11]: lower levels of binding to TEAD4; TEAD4 ΔTm [6, 12]: 4.6 °C; TEAD2 ΔTm [7]: 8.8 °C; TEAD3 ΔTm [8]: 8.5 °C; interaction with TEAD isoforms, in words [9, 11]: primarily interacts with TEAD1-3; TEAD1 ΔTm [9, 12]: 11.6 °C"

# Source: patent US20250223306A1, “TEAD INHIBITORS AND METHODS OF USE” (Sporos BioDiscovery, Inc., priority 2022, published 2025)
